According to patent US20220257752A1, “NEW USE OF CYCLIC DINUCLEOTIDES” (priority 2019, published 2022):

B1: OVA: ovalbumin antigen (EndoGrade, Hyglos) given without adjuvant (protein, UniProt P01012 2-386, looked up)
Ovalbumin: GSIGAASMEFCFDVFKELKVHHANENIFYCPIAIMSALAMVYLGAKDSTRTQINKVVRFDKLPGFGDSIEAQCGTSVNVHSSLRDILNQITKPNDVYSFSLASRLYAEERYPILPEYLQCVKELYRGGLEPINFQTAADQARELINSWVESQTNGIIRNVLQPSSVDSQTAMVLVNAIVFKGLWEKAFKDEDTQAMPFRVTEQESKPVQMMYQIGLFRVASMASEKMKILELPFASGTMSMLVLLPDEVSGLEQLESIINFEKLTEWTSSNVMEERKIKVYLPRMKMEEKYNLTSVLMAMGITDVFSSSANLSGISSAESLKISQAVHAAHAEINEAGREVVGSAEAGVDAASVSEEFRADHPFLFCIKHIATNAVLFFGRCVSP

Assays:
[1] = tested on: H1N1 influenza A/WSN/33 (WSN)-OVA(I) strain; type: in vivo, mice; details: mouse, in vivo
human cord blood = assay: In vitro assay using human cord blood: cytokines in supernatant (multiplex array, IL-1β ELISA); type: cell-based
Source text: (§1) Adult peripheral blood for controls was collected from healthy volunteers. Cord blood was obtained by needle puncture of the umbilical cord vein right after delivery of healthy newborn donors at the Women's Clinic (Braunschweig Central Hospital). Signed informed consent from parents was obtained, ensuring that no ulterior modification of the genetic material contained or therapeutic use was involved in our study. Citrate anti-coagulated cord blood bags (Macopharma, France) were stored at room temperature before the in vitro assays.
(§2) Adult or cord blood was mixed 1:1 with 37° C. warm RPMI 1640 medium (Gibco) and incubated with adjuvants and controls according to previously described method (Dowling, D. J., et. al., 2013, PLoS One 8 (3):e58164.). Briefly, 20 μl of the adjuvants 10× were added to 180 μl of diluted blood in quadruplicates (in a 96 U shape well plate), and incubated at 37° C., 5% CO2 for 6 h. Supernatant fluids were assayed by flow cytometry in multiplex arrays (Biolegend) or in an ELISA reader for IL-1β (eBioscience).
(§3) One of the well-established methods to assess adjuvant immunogenicity in human neonates is the use of cord blood as a surrogate (Dowling, D. J., et. al., 2013, PLoS One 8 (3):e58164. doi:). Therefore, to assess the secretory cytokine profile elicited by CDA in neonates, we incubated cord and adult blood in the presence of adjuvants and controls for 6 h. A bead-based multiplexed immunoassay array was employed in order to detect cytokines in the supernatant. […] Remarkably, CDA increased the secretion of Th1 cytokines, which are important to counteract the Th2 bias present at birth (Debock, I., et. al., 2013, J Immunol 191 (3):1231-9. doi: 10.4049/jimmunol.1203288).

[2] = tested on: human adult peripheral blood; assay: In vitro assay using human adult blood: cytokines in supernatant (multiplex array, IL-1β ELISA); type: cell-based
Source text: as §1, §2, §3

OVA-specific IgG = type: in vivo, mice; details: versus OVA alone, PBS and R848
[3] = tested on: H1N1 PR8 influenza A/WSN/33 (WSN)-OVA(I) strain; type: in vivo, mice

Molecule	body weight over 14 days after challenge [1]	Th17 cytokines (human cord blood; after treatment, blood type not given)	IL-9 (human cord blood; cord blood samples)	IL-6, IL-21 and IL-10 (Tfh profile cytokines) concentrations (human cord blood; cord blood, 6 h incubation)	TNF-α and IFN-γ (Th1 cytokines) concentrations in supernatant (human cord blood; cord blood, 6 h incubation, compared to R848 or medium)	stimulation of cytokines produced by Th2 and Th17 cells (human cord blood; cord blood, compared to R848 treatment and control cells)	IL-1β (pro-inflammatory cytokine) by ELISA (human cord blood; cord blood, with respect to R848)	IL-6, IL-21 and IL-10 (Tfh profile cytokines) concentrations ([2]; 6 h incubation)	TNF-α and IFN-γ (Th1 cytokines) concentrations in supernatant ([2]; 6 h incubation, compared to R848 or medium)	stimulation of cytokines produced by Th2 and Th17 cells ([2]; compared to R848 treatment and control cells)	IL-9 ([2]; over the other treatments)	IL-1β (pro-inflammatory cytokine) by ELISA ([2]; with respect to R848)	OVA-specific IgG titers in sera (OVA-specific IgG)	protection conferred ([3]; mouse, in vivo)	protective CTL response against influenza virus expressing a CD8 restricted epitope ([3]; mouse, in vivo)	differences in protection during the 48 h of maximal weight loss ([3]; versus the other adjuvants and controls, unpaired t test p≤0.05)	deaths after challenge ([3]; mouse, in vivo)
CCOCc1nc2c(N)nc3ccccc3c2n1CC(C)(C)O [R848, reference compound]	lost weight	–	–	–	–	–	–	–	–	–	–	–	–	–	–	–	–
Nc1ncnc2c1ncn2[C@@H]1O[C@@H]2COP(=O)(O)O[C@H]3[C@@H](O)[C@H](n4cnc5c(N)ncnc54)O[C@@H]3COP(=O)(O)O[C@H]2[C@H]1O [CDA, cyclic bis(3′-5′)diadenylic acid]	–	particularly decreased	slightly decreased	higher concentrations	higher concentrations	more modest	slightly decreased	Slightly similar results	differences were not observed	more modest	difference was accentuated	slightly decreased	higher titers	significantly higher	able to promote a protective CTL response	significant	–
B1	lost weight	–	–	–	–	–	–	–	–	–	–	–	–	–	–	–	no deaths
